# According to patent US8563559B2 (Rigel Pharmaceuticals, Inc., priority 2006, dated 2013):
# Molecular target: T1, Axl (Homo sapiens, UniProt P30530)
# T1 construct: endogenous in cells; host or cells: HeLa
# T1 sequence (P30530 26-894): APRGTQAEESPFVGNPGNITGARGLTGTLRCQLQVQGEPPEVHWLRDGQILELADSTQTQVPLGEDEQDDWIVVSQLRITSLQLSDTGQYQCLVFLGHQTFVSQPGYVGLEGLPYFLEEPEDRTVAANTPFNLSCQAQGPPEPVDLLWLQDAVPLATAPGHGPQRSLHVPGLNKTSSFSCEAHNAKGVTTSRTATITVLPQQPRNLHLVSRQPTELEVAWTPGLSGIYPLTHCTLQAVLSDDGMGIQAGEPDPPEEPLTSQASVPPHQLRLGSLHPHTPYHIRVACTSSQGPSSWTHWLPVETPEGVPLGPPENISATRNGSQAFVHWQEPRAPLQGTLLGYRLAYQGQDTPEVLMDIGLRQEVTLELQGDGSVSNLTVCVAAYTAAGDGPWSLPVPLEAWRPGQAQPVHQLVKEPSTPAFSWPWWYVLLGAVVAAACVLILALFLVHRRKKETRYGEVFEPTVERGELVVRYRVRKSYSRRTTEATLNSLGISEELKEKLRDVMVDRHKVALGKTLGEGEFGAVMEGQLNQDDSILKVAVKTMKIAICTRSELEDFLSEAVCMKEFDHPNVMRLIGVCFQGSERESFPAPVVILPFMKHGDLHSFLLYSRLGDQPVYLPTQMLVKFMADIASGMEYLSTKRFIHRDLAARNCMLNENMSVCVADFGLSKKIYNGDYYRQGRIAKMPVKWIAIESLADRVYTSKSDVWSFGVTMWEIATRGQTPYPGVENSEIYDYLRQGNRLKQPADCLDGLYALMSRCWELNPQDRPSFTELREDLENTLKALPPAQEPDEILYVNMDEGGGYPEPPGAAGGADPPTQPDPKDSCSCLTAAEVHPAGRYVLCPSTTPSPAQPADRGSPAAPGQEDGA
# Test: Phospho-AKT in-cell Western assay (inhibition of Axl activity)
# Type: cell-based
# Details: Table 1, formula (Ia); Hela cells, Axl antibody cross-linking stimulation, phospho-Akt chemiluminescence normalized to relative cell number
# Protocol: The compounds of the invention were tested in the following assay for their ability to inhibit Axl activity.
# Phospho-AKT in-Cell Western Assay
# • Cell culture plate: 96 well assay plate (Corning 3610), white, clear bottom, tissue-culture treated. • Cells: Hela cells. • Starvation medium: For Axl stimulation: 0.5% FCS (fetal calf serum) in DMEM, plus Axl/Fc (extracellular domain of AXL fused to immunoglobulin Fc region) (R&D, 154-AL) 500 ng/mL. • For EGF (epidermal growth factor) stimulation: 0.5% FCS in DMEM (Dulbecco's modified Eagles medium). • Poly-L-Lysine 0.01% solution (the working solution): 10 μg/ml, dilute In PBS (phosphate buffered saline). • Axl antibody cross-linking: • 1st: Mouse anti-Axl (R&D, MAB154). • 2nd: Biotin-SP-conjugated AffiniPure goat anti-mouse IgG (H+L) (Jackson ImmunoResearch #115-065-003). • Fixing buffer: 4% formaldehyde in PBS. • Wash buffer: 0.1% TritonX-100 in PBS. • Quenching buffer: 3% H2O2, 0.1% Azide in wash buffer, Azide and hydrogen peroxide 1(H2O2) are added fresh. • Blocking buffer: 5% BSA in TBST (tris buffered saline plus 0.1% Tween 20). • Primary antibody: Rabbit anti-human Phospho-Akt antibody (Cell Signaling 9271): 1×250 diluted in blocking buffer. • Secondary antibody: HRP (horse radish peroxidase)-conjugated Goat anti-Rabbit secondary, stock solution: Jackson ImmunoResearch (Goat anti-Rabbit HRP, #111-035-144) 1:1 diluted in glycerol, store at −20° C. The working solution: 1×2000 dilution of stock in blocking buffer. • Chemiluminescent working solution (Pierce, 37030): SuperSignal ELISA (enzyme linked immunosorbant assay) Pico Chemiluminescent substrate. • Crystal Violet solution: Stock: 2.5% Crystal violet in methanol, filtered and kept at ambient temperature. The working solution: dilute the stock 1:20 with PBS immediately before use. • 10% SDS: working solution: 5% SDS (sodium dodecylsulfate), diluted in PBS Methods: Day 1:
# A 96 well TC (tissue culture treated) plate was coated with 10 μg/mL poly-L-Lysine at 37° C. for 30 min, washed twice with PBS, and air-dried for 5 minutes before cells were added. Hela cells were seeded at 10,000 cells/well and the cells were starved in 100 μL starvation medium containing Axl/Fc for 24 hrs.
# The cells were pre-treated with test compounds by adding 100 μL of 2× test compound to the starvation medium on the cells. The cells were incubated at 37° C. for 1 hr before stimulation.
# The cells were stimulated by Axl-antibody cross-linking as follows: A 5×1st/2nd Axl antibody mixture was made (37.5 μg/mL 1st/100 μg/mL 2nd) in starvation medium and nutated at 4° C. with thorough mixing for 1-2 hours for clustering. The resulting mix was warmed to 37° C. 50 μL of 5×Axl 1st/2nd of antibody cluster was added to the cells and the cells were incubated at 37° C. for 5 min.
# After 5 minutes stimulation, the plate was flicked to remove medium and the plate was tapped onto paper towels. Formaldehyde (4.0% in PBS, 100 μL) was added to fix the cells and the cells were incubated at ambient temperature for 20 min without shaking.
# The cells were washed with a plate washer buffer to remove the formaldehyde solution. The plate was flicked to removed excess wash buffer and tapped onto paper towels. Quenching buffer (100 μL) was added to each well and the cells were incubated at ambient temperature for 20 minutes without shaking.
# The cells were washed with a plate washer buffer to remove the quenching buffer. Blocking buffer (100 μL) was added and the cells were incubated at ambient temperature for at least an hour with gentle shaking.
# The cells were washed with a plate washer buffer and diluted primary antibody (50 μL) was added to each well (blocking buffer was added to the negative control wells instead). The plates were incubated overnight at 4° C. with gentle shaking.
# The wash buffer was removed, diluted secondary antibody (100 μL) was added, and the cells were incubated at ambient temperature for 1 hour with gentle shaking. […]
row,Compound,IC50 [nM]
1,"CNC(=O)[C@H]1C[C@H]2C[C@H](C2(C)C)[C@@]1(C)Nc1nc(Nc2ccc(N3CCOCC3)cc2)ncc1Cl [Compound 2, (1R,2R,3S,5R)-2-(5-chloro-2-(4-morpholinophenylamino)pyrimidin-4-ylamino)-N,2,6,6-tetramethylbicyclo[3.1.1]heptane-3-carboxamide]",1000 to 10000
2,"CNC(=O)[C@H]1C[C@H]2C[C@H](C2(C)C)[C@@]1(C)Nc1nc(Nc2ccc(C(=O)N3CCN(C4CCCCC4)CC3)cc2)ncc1Cl [Compound 10, (1R,2R,3S,5R)-2-(5-chloro-2-(4-(4-cyclohexylpiperazine-1-carbonyl)phenylamino)pyrimidin-4-ylamino)-N,2,6,6-tetramethylbicyclo[3.1.1]heptane-3-carboxamide]",< 1000
3,"CNC(=O)[C@H]1C[C@H]2C[C@H](C2(C)C)[C@@]1(C)Nc1nc(Nc2ccc(N3CCN(c4ccc(F)cc4)CC3)cc2)ncc1Cl [Compound 11, (1R,2R,3S,5R)-2-(5-chloro-2-(4-(4-(4-fluorophenyl)piperazin-1-yl)phenylamino)pyrimidin-4-ylamino)-N,2,6,6-tetramethylbicyclo[3.1.1]heptane-3-carboxamide]",> 20000
4,"CNC(=O)[C@H]1C[C@H]2C[C@H](C2(C)C)[C@@]1(C)Nc1nc(Nc2ccc(C3CCN(C)CC3)cc2)ncc1Cl [Compound 12, (1R,2R,3S,5R)-2-(5-chloro-2-(4-(1-methylpiperidin-4-yl)phenylamino)pyrimidin-4-ylamino)-N,2,6,6-tetramethylbicyclo[3.1.1]heptane-3-carboxamide]",< 1000
5,"CNC(=O)[C@H]1C[C@H]2C[C@H](C2(C)C)[C@@]1(C)Nc1nc(Nc2ccc(N3CCN(C(C)=O)CC3)cc2)ncc1Cl [Compound 13, (1R,2R,3S,5R)-2-(2-(4-(4-acetylpiperazin-1-yl)phenylamino)-5-chloropyrimidin-4-ylamino)-N,2,6,6-tetramethylbicyclo[3.1.1]heptane-3-carboxamide]",1000 to 10000
6,CNC(=O)[C@H]1C[C@H]2C[C@H](C2(C)C)[C@@]1(C)Nc1nc(Nc2ccc(C(=O)N3CCN(C)CC3)c(Cl)c2)ncc1Cl [Compound 14],< 1000
7,"CCN1CCN(c2cc(Nc3ncc(Cl)c(N[C@@]4(C)[C@@H](C(=O)NC)C[C@H]5C[C@@H]4C5(C)C)n3)ccc2Cl)CC1 [Compound 15, (1R,2R,3S,5R)-2-(5-chloro-2-(4-chloro-3-(4-ethylpiperazin-1-yl)phenylamino)pyrimidin-4-ylamino)-N,2,6,6-tetramethylbicyclo[3.1.1]heptane-3-carboxamide]",1000 to 10000
8,"CNC(=O)[C@H]1C[C@H]2C[C@H](C2(C)C)[C@@]1(C)Nc1nc(Nc2ccc(Cl)c(N3CCN(C(C)=O)CC3)c2)ncc1Cl [Compound 16, (1R,2R,3S,5R)-2-(2-(3-(4-acetylpiperazin-1-yl)-4-chlorophenylamino)-5-chloropyrimidin-4-ylamino)-N,2,6,6-tetramethylbicyclo[3.1.1]heptane-3-carboxamide]",1000 to 10000
9,"CN1CCN(c2ccc(Nc3ncc(Cl)c(N[C@@]4(CCOCc5ccccc5)[C@@H](C(N)=O)C[C@H]5C[C@@H]4C5(C)C)n3)cc2F)CC1 [Compound 17, (1R,2R,3S,5R)-2-(2-(benzyloxy)ethyl)-2-(5-chloro-2-(3-fluoro-4-(4-methylpiperazin-1-yl)phenylamino)pyrimidin-4-ylamino)-6,6-dimethylbicyclo[3.1.1]heptane-3-carboxamide]",> 20000
10,"CNC(=O)[C@H]1C[C@H]2C[C@H](C2(C)C)[C@@]1(C)Nc1nc(Nc2ccc(Cl)c(N3CCN(C(=O)OC)CC3)c2)ncc1Cl [Compound 18, (1R,2R,3S,5R)-2-(2-(3-(4-(methoxycarbonyl)piperazin-1-yl)-4-chlorophenylamino)-5-chloropyrimidin-4-ylamino)-N,2,6,6-tetramethylbicyclo[3.1.1]heptane-3-carboxamide]",> 20000

# Results, then the molecule that gave them:
row,IC50 [nM],Compound
1,< 1000,"CNC(=O)[C@H]1C[C@H]2C[C@H](C2(C)C)[C@@]1(C)Nc1nc(Nc2ccc(OCCN3CCCC3)cc2)ncc1Cl [Compound 1, (1R,2R,3S,5R)-2-(5-chloro-2-(4-(2-(pyrrolidin-1-yl)ethoxy)phenylamino)pyrimidin-4-ylamino)-N,2,6,6-tetramethylbicyclo[3.1.1]heptane-3-carboxamide]"
2,< 1000,"CNC(=O)[C@H]1C[C@H]2C[C@H](C2(C)C)[C@@]1(C)Nc1nc(Nc2ccc(OCCN3CCCC3)c(F)c2)ncc1Cl [Compound 3, (1R,2R,3S,5R)-2-(5-chloro-2-(3-fluoro-4-(2-(pyrrolidin-1-yl)ethoxy)phenylamino)pyrimidin-4-ylamino)-N,2,6,6-tetramethylbicyclo[3.1.1]heptane-3-carboxamide]"
3,< 1000,"CNC(=O)[C@H]1C[C@H]2C[C@H](C2(C)C)[C@@]1(C)Nc1nc(Nc2ccc(N3CCN(C)CC3)c(F)c2)ncc1Cl [Compound 4, (1R,2R,3S,5R)-2-(5-chloro-2-(3-fluoro-4-(4-methylpiperazin-1-yl)phenylamino)pyrimidin-4-ylamino)-N,2,6,6-tetramethylbicyclo[3.1.1]heptane-3-carboxamide]"
4,< 1000,"CNC(=O)[C@H]1C[C@H]2C[C@H](C2(C)C)[C@@]1(C)Nc1nc(Nc2ccc(N3CCN(C)CC3)c(Cl)c2)ncc1Cl [Compound 5, (1R,2R,3S,5R)-2-(5-chloro-2-(3-chloro-4-(4-methylpiperazin-1-yl)phenylamino)pyrimidin-4-ylamino)-N,2,6,6-tetramethylbicyclo[3.1.1]heptane-3-carboxamide]"
5,< 1000,"CNC(=O)[C@H]1C[C@H]2C[C@H](C2(C)C)[C@@]1(C)Nc1nc(Nc2ccc(OCC(C)(C)N3CCCC3)cc2)ncc1Cl [Compound 8, (1R,2R,3S,5R)-2-(5-chloro-2-(4-(2-methyl-2-(pyrrolidin-1-yl)propoxy)phenylamino)pyrimidin-4-ylamino)-N,2,6,6-tetramethylbicyclo[3.1.1]heptane-3-carboxamide]"
6,< 1000,"CNC(=O)[C@H]1C[C@H]2C[C@H](C2(C)C)[C@@]1(C)Nc1nc(Nc2ccc(OCCNC3CCCC3)cc2)ncc1Cl [Compound 9, (1R,2R,3S,5R)-2-(5-chloro-2-(4-(2-(cyclopentylamino)ethoxy)phenylamino)pyrimidin-4-ylamino)-N,2,6,6-tetramethylbicyclo[3.1.1]heptane-3-carboxamide]"
